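1) Cells in 96-well plates. 2) Compound, 48 h, 5 concentrations. 3) Linear interpolation between surrounding doses. 4) Unreached endpoint = highest concentration. Abbreviation: GI50, concentration required for 50% inhibition of growth.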 Calls of active or inactive are those of the source. Cut-off read from the data, not from the text of the source: active = GI50 up to about 1.1 µM and inactive = higher.
Columns and labels:
Assay in all cases: DTP human tumour cell line panel, 48 h
HL-60 = tested on: HL-60
SK-OV-3 = tested on: SK-OV-3
TK-10 = tested on: TK-10
OVCAR-8 = tested on: OVCAR-8
SF-295 = tested on: SF-295
SF-268 = tested on: SF-268
SNB-75 = tested on: SNB-75
UO-31 = tested on: UO-31
NCI-H522 = tested on: NCI-H522
UACC-257 = tested on: UACC-257
RXF 393 = tested on: RXF 393
SF-539 = tested on: SF-539
A549 = tested on: A549
HCC 2998 = tested on: HCC 2998
LOX IMVI = tested on: LOX IMVI
UACC-62 = tested on: UACC-62
K562 = tested on: K562
SR = tested on: SR
NCI-H226 = tested on: NCI-H226
OVCAR-3 = tested on: OVCAR-3

Row | Structure (SMILES) | GI50 (HL-60) | GI50 (SK-OV-3) | GI50 (TK-10) | GI50 (OVCAR-8) | GI50 (SF-295) | GI50 (SF-268) | GI50 (SNB-75) | GI50 (UO-31) | GI50 (NCI-H522) | GI50 (UACC-257) | GI50 (RXF 393) | GI50 (SF-539) | GI50 (A549) | GI50 (HCC 2998) | GI50 (LOX IMVI) | GI50 (UACC-62) | GI50 (K562) | GI50 (SR) | GI50 (NCI-H226) | GI50 (OVCAR-3)
1 | Cn1c2ccccc2n2c(=O)c3cc([N+](=O)[O-])ccc3c(C#N)c12 | > 100 µM (inactive) | > 100 µM (inactive) | > 100 µM (inactive) | > 100 µM (inactive) | 83.2 µM (inactive) | > 100 µM (inactive) | 56.2 µM (inactive) | > 100 µM (inactive) | > 100 µM (inactive) | > 100 µM (inactive) | > 100 µM (inactive) | 50.4 µM (inactive) | > 100 µM (inactive) | > 100 µM (inactive) | > 100 µM (inactive) | > 100 µM (inactive) | > 100 µM (inactive) | > 100 µM (inactive) | > 100 µM (inactive) | > 100 µM (inactive)
2 | CC(C)=CC1CC(=[N+]=[N-])C(=O)C1(C)C (configuration not stated) | > 100 µM (inactive) | > 100 µM (inactive) | > 100 µM (inactive) | > 100 µM (inactive) | > 100 µM (inactive) | > 100 µM (inactive) | > 46.7 µM (inactive) | > 59 µM (inactive) | > 80.7 µM (inactive) | > 100 µM (inactive) | > 31.6 µM (inactive) | > 100 µM (inactive) | > 100 µM (inactive) | > 100 µM (inactive) | > 75.7 µM (inactive) | > 100 µM (inactive) | > 71.1 µM (inactive) | 23.1 µM (inactive) | > 100 µM (inactive) | > 100 µM (inactive)
3 | O=c1nc2n(c3nsnc13)CCO2 | > 100 µM (inactive) | > 100 µM (inactive) | > 100 µM (inactive) | > 100 µM (inactive) | – | > 100 µM (inactive) | > 100 µM (inactive) | > 100 µM (inactive) | > 100 µM (inactive) | > 100 µM (inactive) | > 100 µM (inactive) | > 100 µM (inactive) | > 100 µM (inactive) | > 100 µM (inactive) | > 100 µM (inactive) | > 100 µM (inactive) | > 100 µM (inactive) | > 100 µM (inactive) | > 100 µM (inactive) | > 100 µM (inactive)
4 | O=CN/C=C/c1ccccc1O | > 86.7 µM (inactive) | > 100 µM (inactive) | > 100 µM (inactive) | > 100 µM (inactive) | > 100 µM (inactive) | > 79.8 µM (inactive) | > 100 µM (inactive) | > 100 µM (inactive) | > 100 µM (inactive) | > 100 µM (inactive) | > 100 µM (inactive) | > 100 µM (inactive) | > 100 µM (inactive) | > 100 µM (inactive) | > 100 µM (inactive) | > 100 µM (inactive) | > 31.6 µM (inactive) | > 100 µM (inactive) | > 100 µM (inactive) | > 100 µM (inactive)
5 | CCOC(=O)C1C=C2O[C@@H]3OC4(CCCCC4)O[C@@H]3C2[C@H]2C(=O)C=CC(=O)[C@@]12C(=O)OC (some centres not stated) | 2.25 µM (inactive) | 18.2 µM (inactive) | 13.6 µM (inactive) | 6.41 µM (inactive) | 18.2 µM (inactive) | 12.4 µM (inactive) | 19.4 µM (inactive) | 16.3 µM (inactive) | 3.98 µM (inactive) | 16.8 µM (inactive) | 1.66 µM (inactive) | 3.15 µM (inactive) | 14.5 µM (inactive) | 14.3 µM (inactive) | 15.5 µM (inactive) | 16.8 µM (inactive) | 5.45 µM (inactive) | 2.71 µM (inactive) | 20.6 µM (inactive) | 7.89 µM (inactive)
6 | CO[C@H]1C=CO[C@@]2(C)Oc3c(C)c(O)c4c(O)c(c(CN5CCN(C)CC5)c(O)c4c3C2=O)NC(=O)/C(C)=C\C=C[C@H](C)[C@H](O)C(C)[C@@H](O)C(C)[C@H](OC(C)=O)[C@@H]1C (some centres not stated) | 23.1 µM (inactive) | > 100 µM (inactive) | 49.4 µM (inactive) | 20 µM (inactive) | > 100 µM (inactive) | 50.2 µM (inactive) | 72.9 µM (inactive) | 33.7 µM (inactive) | 18.3 µM (inactive) | 21 µM (inactive) | 48.3 µM (inactive) | 24.8 µM (inactive) | 39.7 µM (inactive) | 44.4 µM (inactive) | 14.3 µM (inactive) | 34.6 µM (inactive) | 20.9 µM (inactive) | 6.62 µM (inactive) | > 63.5 µM (inactive) | 2.88 µM (inactive)
7 | CCOCC(=O)N[C@H]1CCc2cc(OC(=O)COCC)c(OC)c(OC)c2-c2ccc(SC)c(=O)cc21 | 0.00473 µM (active) | 0.00867 µM (active) | 0.459 µM (active) | 0.0307 µM (active) | 0.0157 µM (active) | 0.0384 µM (active) | 0.0461 µM (active) | 0.914 µM (active) | 0.0151 µM (active) | 0.00902 µM (active) | 0.021 µM (active) | 0.0172 µM (active) | 0.0355 µM (active) | 0.0264 µM (active) | 0.0303 µM (active) | 0.0102 µM (active) | 0.0126 µM (active) | 0.0159 µM (active) | 0.0301 µM (active) | 0.01 µM (active)
8 | O=C1c2ccccc2-c2nnc(-c3ccc(Cl)cc3)cc21 | > 10 µM (inactive) | > 10 µM (inactive) | – | > 10 µM (inactive) | > 10 µM (inactive) | > 10 µM (inactive) | > 10 µM (inactive) | > 10 µM (inactive) | > 10 µM (inactive) | > 10 µM (inactive) | > 10 µM (inactive) | > 10 µM (inactive) | > 10 µM (inactive) | > 10 µM (inactive) | > 10 µM (inactive) | > 10 µM (inactive) | > 10 µM (inactive) | > 10 µM (inactive) | > 10 µM (inactive) | > 10 µM (inactive)
9 | C#CCNC(CS)C(=O)O (configuration not stated) | > 100 µM (inactive) | > 100 µM (inactive) | > 100 µM (inactive) | > 100 µM (inactive) | > 100 µM (inactive) | > 100 µM (inactive) | > 100 µM (inactive) | > 100 µM (inactive) | > 100 µM (inactive) | > 100 µM (inactive) | > 100 µM (inactive) | – | > 100 µM (inactive) | > 100 µM (inactive) | > 100 µM (inactive) | > 100 µM (inactive) | > 100 µM (inactive) | > 100 µM (inactive) | > 100 µM (inactive) | > 100 µM (inactive)
10 | COC(=O)C1=C(\O)C[C@@]2(C)CC[C@@H](C(=O)OC)C2C/C=C\1C(=O)OC (some centres not stated) | 49.5 µM (inactive) | > 100 µM (inactive) | > 100 µM (inactive) | > 100 µM (inactive) | > 100 µM (inactive) | 70.5 µM (inactive) | > 100 µM (inactive) | 64 µM (inactive) | > 100 µM (inactive) | 72.8 µM (inactive) | 40.6 µM (inactive) | 19.7 µM (inactive) | 87.7 µM (inactive) | > 100 µM (inactive) | > 100 µM (inactive) | > 100 µM (inactive) | – | 81.3 µM (inactive) | 89.1 µM (inactive) | > 100 µM (inactive)
11 | CC(NNC(=O)c1cc[n+]([BH2-]C#N)cc1)c1cccc(F)c1 (configuration not stated) | 50.5 µM (inactive) | – | > 100 µM (inactive) | > 100 µM (inactive) | > 100 µM (inactive) | > 100 µM (inactive) | > 100 µM (inactive) | > 100 µM (inactive) | > 100 µM (inactive) | > 100 µM (inactive) | > 100 µM (inactive) | > 100 µM (inactive) | > 100 µM (inactive) | > 100 µM (inactive) | > 100 µM (inactive) | > 100 µM (inactive) | > 100 µM (inactive) | > 100 µM (inactive) | > 100 µM (inactive) | > 100 µM (inactive)
12 | COc1ccccc1CNCc1nc2ccccc2[nH]1 | 80.5 µM (inactive) | – | > 100 µM (inactive) | > 100 µM (inactive) | > 100 µM (inactive) | > 100 µM (inactive) | > 100 µM (inactive) | > 100 µM (inactive) | > 100 µM (inactive) | > 100 µM (inactive) | > 100 µM (inactive) | > 100 µM (inactive) | > 100 µM (inactive) | > 100 µM (inactive) | > 100 µM (inactive) | > 100 µM (inactive) | > 100 µM (inactive) | > 100 µM (inactive) | > 100 µM (inactive) | > 100 µM (inactive)
13 | CC(=O)NNc1nc(C)c(C(=O)/C=C/c2cccc([N+](=O)[O-])c2)s1 | > 100 µM (inactive) | > 100 µM (inactive) | > 100 µM (inactive) | > 100 µM (inactive) | > 100 µM (inactive) | > 100 µM (inactive) | – | > 100 µM (inactive) | > 100 µM (inactive) | > 100 µM (inactive) | > 100 µM (inactive) | > 100 µM (inactive) | > 100 µM (inactive) | > 100 µM (inactive) | > 100 µM (inactive) | > 100 µM (inactive) | > 100 µM (inactive) | > 100 µM (inactive) | > 100 µM (inactive) | > 100 µM (inactive)
14 | C#Cc1ccccc1C(=O)OC | > 100 µM (inactive) | > 100 µM (inactive) | > 100 µM (inactive) | > 100 µM (inactive) | > 100 µM (inactive) | – | 11.5 µM (inactive) | > 100 µM (inactive) | 35.9 µM (inactive) | > 100 µM (inactive) | > 100 µM (inactive) | > 100 µM (inactive) | > 100 µM (inactive) | > 100 µM (inactive) | > 100 µM (inactive) | > 100 µM (inactive) | > 100 µM (inactive) | > 100 µM (inactive) | > 100 µM (inactive) | > 100 µM (inactive)

Source: ChEMBL document CHEMBL1201862, “PubChem BioAssay data set” (2004)
